In publication PMC5123632 (2016) one finds ΔTm data, which are given here for one molecule.

Each structure is given as a SMILES string.

This test deals with nasT'FRET (DNA, G4) GGGAGCGGGACGGGGGCCGGG
The test is described as follows: FRET melting. Particulars: 100 mM Na+; 10 mM sodium cacodylate pH 7.4; 1 μM ligand (stated for ligand 1).

In general, ΔTm refers to the shift of the melting midpoint relative to a reference. Turning to `C[n+]1ccc(-c2c3nc(c(-c4cc[n+](C)cc4)c4ccc([nH]4)c(-c4cc[n+](C)cc4)c4nc(c(-c5cc[n+](C)cc5)c5ccc2[nH]5)C=C4)C=C3)cc1`, the ΔTm turned out to be 30 °C.
